Patent US20020137929A1, “1 - (3-heterocyclylphenyl) isothiourea, -isourea, -guanidine and -amidine herbicidal agents” (Intellectual Property Department, BASF Aktiengesellschaft, priority 1998, published 2002)

Key:
ABUTH (Velvetleaf) [1] = assay: Postemergence herbicidal evaluation; format: in vivo, Abutilon theophrasti; conditions: postemergence
Method in brief: (§1)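 ~2-wk seedlings; postemergence spray, 40 psi; vehicle 1:1 acetone:water + 0.5% Tween 20; rate ≈0.0156–0.500 kg/ha; greenhouse hold; scored 4–5 wk after treatment, 0–9 scale vs control; repeat tests averaged.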

AMBEL (Ragweed, Common) = assay: Postemergence herbicidal evaluation; format: in vivo, Ambrosia artemisifolia; conditions: postemergence
Method in brief: as §1

ECHCG (Barnyardgrass) = assay: Postemergence herbicidal evaluation; format: in vivo, Echinochloa crus-galli; conditions: postemergence
Method in brief: as §1

SETVI (Foxtail, Green) [2] = assay: Postemergence herbicidal evaluation; format: in vivo, Setaria viridis; conditions: postemergence
Method in brief: as §1

[3] = tested on: GLXMAW (Soybean, Williams); assay: Postemergence herbicidal evaluation; format: in vivo, Glycine max, (L.) Merr. cv Williams; conditions: postemergence
Method in brief: as §1

ORYSAT (Rice, Tebonnet) = assay: Postemergence herbicidal evaluation; format: in vivo, Oryza sativa, (L.) Tebonnet; conditions: postemergence
Method in brief: as §1

[4] = tested on: TRZAWR (Wheat, Winter, cv Riband); assay: Postemergence herbicidal evaluation; format: in vivo, Triticum aestivum; conditions: postemergence
Method in brief: as §1

ABUTH (Velvetleaf) [5] = assay: Preemergence herbicidal evaluation; format: in vivo, Abutilon theophrasti; conditions: rated 4-5 weeks after treatment
Method in brief: (§2)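 Scores (0–9) reflect visual comparison with control plants for stand, vigor, malformation, size and chlorosis. Compound was applied to the soil after sowing, before emergence, as an aqueous acetone spray (about 0.0156–0.500 kg/ha), and cups were kept in a greenhouse for 4–5 weeks.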

CASOB (Sicklepod) = assay: Preemergence herbicidal evaluation; format: in vivo, Cassia obtusifolia; conditions: rated 4-5 weeks after treatment
Method in brief: as §2

SETVI (Foxtail, Green) [6] = assay: Preemergence herbicidal evaluation; format: in vivo, Setaria viridis; conditions: rated 4-5 weeks after treatment
Method in brief: as §2

MOOVA (Monochoria) = assay: Preemergence weed control under flooded paddy conditions; format: in vivo, Monochoria vaginalis; conditions: rated 3-4 weeks after treatment
Method in brief: (§3)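 Ratings on a 0-9 visual scale cover stand, vigor, malformation, size, chlorosis and overall appearance relative to a control, taken three to four weeks post-treatment. Application was into flood water over freshly sown silt loam at roughly 0.0313 to 0.500 kg/ha.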

[7] = tested on: SAGPY (Arrowhead (Pygmaea)); assay: as above; format: in vivo, Sagittaria pygmaea; conditions: rated 3-4 weeks after treatment
Method in brief: as §3

CYPIR (Rice Flatsedge) = assay: Postemergence weed control under flooded paddy conditions; format: in vivo, Cyperus iria; conditions: postemergence weeds, 3-4 weeks after treatment
Method in brief: (§4)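 With weeds 3 to 5 cm tall and rice at the 1.5 to 2.5 leaf stage, containers were flooded and water held 1.5 to 3 cm above soil. Compounds in 50/50 v/v aqueous/acetone went into the flood water at about 0.0313 to 0.500 kg/ha a.i. Effects were visually rated 0–9 against controls after three to four weeks in the greenhouse.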

[8] = tested on: SAGPY (Arrowhead (Pygmaea)); assay: as above; format: in vivo, Sagittaria pygmaea; conditions: postemergence weeds, 3-4 weeks after treatment
Method in brief: as §4

For `CCOC(=O)CN1C(=O)C(C)SC1=Nc1cc(-n2c(=O)cc(C(F)(F)F)n(C)c2=O)c(F)cc1Cl` (centres unmarked) [Compound 12], which ABUTH herbicidal rating (ABUTH (Velvetleaf) [1]; rate 0.0156 kg/ha) is on record?
The ABUTH herbicidal rating was 9.0.

And the ABUTH herbicidal rating (ABUTH (Velvetleaf) [1]; rate 0.0313 kg/ha)?
The ABUTH herbicidal rating was 9.0.

What about the ABUTH herbicidal rating (ABUTH (Velvetleaf) [1]; rate 0.0625 kg/ha) of the same compound?
Its ABUTH herbicidal rating is 9.0.

What about the ABUTH herbicidal rating (ABUTH (Velvetleaf) [1]; rate 0.1250 kg/ha) of the same compound?
Its ABUTH herbicidal rating is 9.0.

And the AMBEL herbicidal rating (AMBEL (Ragweed, Common); rate 0.0156 kg/ha)?
Its AMBEL herbicidal rating is 7.0.

And the AMBEL herbicidal rating (AMBEL (Ragweed, Common); rate 0.0313 kg/ha)?
Its AMBEL herbicidal rating is 9.0.

And the AMBEL herbicidal rating (AMBEL (Ragweed, Common); rate 0.0625 kg/ha)?
The AMBEL herbicidal rating was 7.0.

What about the AMBEL herbicidal rating (AMBEL (Ragweed, Common); rate 0.1250 kg/ha) of the same compound?
Its AMBEL herbicidal rating is 9.0.

What about the ECHCG herbicidal rating (ECHCG (Barnyardgrass); rate 0.0156 kg/ha) of the same compound?
The ECHCG herbicidal rating was 0.0.

And the ECHCG herbicidal rating (ECHCG (Barnyardgrass); rate 0.0313 kg/ha)?
Its ECHCG herbicidal rating is 1.0.

And the ECHCG herbicidal rating (ECHCG (Barnyardgrass); rate 0.0625 kg/ha)?
Its ECHCG herbicidal rating is 4.0.

What about the ECHCG herbicidal rating (ECHCG (Barnyardgrass); rate 0.1250 kg/ha) of the same compound?
The ECHCG herbicidal rating was 9.0.

And the SETVI herbicidal rating (SETVI (Foxtail, Green) [2]; rate 0.0156 kg/ha)?
The SETVI herbicidal rating was 0.0.

And the SETVI herbicidal rating (SETVI (Foxtail, Green) [2]; rate 0.0313 kg/ha)?
Its SETVI herbicidal rating is 4.0.

What about the SETVI herbicidal rating (SETVI (Foxtail, Green) [2]; rate 0.0625 kg/ha) of the same compound?
The SETVI herbicidal rating was 9.0.

And the SETVI herbicidal rating (SETVI (Foxtail, Green) [2]; rate 0.1250 kg/ha)?
The SETVI herbicidal rating was 9.0.

And the GLXMAW herbicidal rating ([3]; rate 0.0156 kg/ha)?
The GLXMAW herbicidal rating was 5.0.

What about the GLXMAW herbicidal rating ([3]; rate 0.0313 kg/ha) of the same compound?
Its GLXMAW herbicidal rating is 7.0.

What about the GLXMAW herbicidal rating ([3]; rate 0.0625 kg/ha) of the same compound?
The GLXMAW herbicidal rating was 8.5.

And the GLXMAW herbicidal rating ([3]; rate 0.1250 kg/ha)?
Its GLXMAW herbicidal rating is 8.0.

And the ORYSAT herbicidal rating (ORYSAT (Rice, Tebonnet); rate 0.0156 kg/ha)?
The ORYSAT herbicidal rating was 2.5.

And the ORYSAT herbicidal rating (ORYSAT (Rice, Tebonnet); rate 0.0313 kg/ha)?
Its ORYSAT herbicidal rating is 3.0.

What about the ORYSAT herbicidal rating (ORYSAT (Rice, Tebonnet); rate 0.0625 kg/ha) of the same compound?
The ORYSAT herbicidal rating was 3.0.

What about the ORYSAT herbicidal rating (ORYSAT (Rice, Tebonnet); rate 0.1250 kg/ha) of the same compound?
The ORYSAT herbicidal rating was 5.0.

What about the TRZAWR herbicidal rating ([4]; rate 0.0156 kg/ha) of the same compound?
The TRZAWR herbicidal rating was 5.5.

And the TRZAWR herbicidal rating ([4]; rate 0.0313 kg/ha)?
Its TRZAWR herbicidal rating is 7.0.

What about the TRZAWR herbicidal rating ([4]; rate 0.0625 kg/ha) of the same compound?
Its TRZAWR herbicidal rating is 7.5.

And the TRZAWR herbicidal rating ([4]; rate 0.1250 kg/ha)?
The TRZAWR herbicidal rating was 7.5.

What about the “ABUTH preemergence herbicidal rating” value (ABUTH (Velvetleaf) [5]; rate 0.0156 kg/ha) of the same compound?
Its value is 7.5.

What about the “ABUTH preemergence herbicidal rating” value (ABUTH (Velvetleaf) [5]; rate 0.0313 kg/ha) of the same compound?
Its value is 9.0.

What about the “ABUTH preemergence herbicidal rating” value (ABUTH (Velvetleaf) [5]; rate 0.0625 kg/ha) of the same compound?
Its value is 9.0.

What about the “ABUTH preemergence herbicidal rating” value (ABUTH (Velvetleaf) [5]; rate 0.1250 kg/ha) of the same compound?
The value was 9.0.

What about the “ABUTH preemergence herbicidal rating” value (ABUTH (Velvetleaf) [5]; rate 0.2500 kg/ha) of the same compound?
Its value is 9.0.

And the “CASOB preemergence herbicidal rating” value (CASOB (Sicklepod); rate 0.0156 kg/ha)?
The value was 0.0.

What about the “CASOB preemergence herbicidal rating” value (CASOB (Sicklepod); rate 0.0313 kg/ha) of the same compound?
The value was 0.0.

And the “CASOB preemergence herbicidal rating” value (CASOB (Sicklepod); rate 0.0625 kg/ha)?
Its value is 4.5.

And the “CASOB preemergence herbicidal rating” value (CASOB (Sicklepod); rate 0.1250 kg/ha)?
The value was 4.5.

And the “CASOB preemergence herbicidal rating” value (CASOB (Sicklepod); rate 0.2500 kg/ha)?
The value was 6.0.

What about the “SETVI preemergence herbicidal rating” value (SETVI (Foxtail, Green) [6]; rate 0.0156 kg/ha) of the same compound?
The value was 8.5.

What about the “SETVI preemergence herbicidal rating” value (SETVI (Foxtail, Green) [6]; rate 0.0313 kg/ha) of the same compound?
The value was 9.0.

What about the “SETVI preemergence herbicidal rating” value (SETVI (Foxtail, Green) [6]; rate 0.0625 kg/ha) of the same compound?
The value was 9.0.

What about the “SETVI preemergence herbicidal rating” value (SETVI (Foxtail, Green) [6]; rate 0.1250 kg/ha) of the same compound?
Its value is 9.0.

And the “SETVI preemergence herbicidal rating” value (SETVI (Foxtail, Green) [6]; rate 0.2500 kg/ha)?
The value was 9.0.

And the “Herbicidal rating MOOVA” value (MOOVA (Monochoria); 0.0313 kg/ha)?
The value was 9.0.

What about the “Herbicidal rating MOOVA” value (MOOVA (Monochoria); 0.0625 kg/ha) of the same compound?
The value was 9.0.

What about the “Herbicidal rating MOOVA” value (MOOVA (Monochoria); 0.1250 kg/ha) of the same compound?
Its value is 9.0.

What about the “Herbicidal rating MOOVA” value (MOOVA (Monochoria); 0.2500 kg/ha) of the same compound?
The value was 9.0.

And the “Herbicidal rating SAGPY” value ([7]; 0.0313 kg/ha)?
Its value is 0.0.

And the “Herbicidal rating SAGPY” value ([7]; 0.0625 kg/ha)?
Its value is 1.0.

And the “Herbicidal rating SAGPY” value ([7]; 0.1250 kg/ha)?
The value was 4.0.

What about the “Herbicidal rating SAGPY” value ([7]; 0.2500 kg/ha) of the same compound?
The value was 0.0.

And the “Herbicidal rating CYPIR” value (CYPIR (Rice Flatsedge); rate 0.0313 kg/ha)?
The value was 0.0.

And the “Herbicidal rating CYPIR” value (CYPIR (Rice Flatsedge); rate 0.0625 kg/ha)?
Its value is 0.0.

What about the “Herbicidal rating CYPIR” value (CYPIR (Rice Flatsedge); rate 0.1250 kg/ha) of the same compound?
Its value is 1.0.

And the “Herbicidal rating CYPIR” value (CYPIR (Rice Flatsedge); rate 0.2500 kg/ha)?
The value was 0.0.

And the “Herbicidal rating SAGPY” value ([8]; rate 0.0313 kg/ha)?
The value was 0.0.

And the “Herbicidal rating SAGPY” value ([8]; rate 0.0625 kg/ha)?
Its value is 1.0.

And the “Herbicidal rating SAGPY” value ([8]; rate 0.1250 kg/ha)?
Its value is 4.0.

What about the “Herbicidal rating SAGPY” value ([8]; rate 0.2500 kg/ha) of the same compound?
The value was 0.0.
